In the assay the target is T1, HMG-CoA reductase (Homo sapiens, UniProt P04035).
T1 construct: hepatocytes isolated from livers of 8-week old female chickens; endogenous in cells; host or cells: primary chicken hepatocytes
T1 sequence (P04035 1-888): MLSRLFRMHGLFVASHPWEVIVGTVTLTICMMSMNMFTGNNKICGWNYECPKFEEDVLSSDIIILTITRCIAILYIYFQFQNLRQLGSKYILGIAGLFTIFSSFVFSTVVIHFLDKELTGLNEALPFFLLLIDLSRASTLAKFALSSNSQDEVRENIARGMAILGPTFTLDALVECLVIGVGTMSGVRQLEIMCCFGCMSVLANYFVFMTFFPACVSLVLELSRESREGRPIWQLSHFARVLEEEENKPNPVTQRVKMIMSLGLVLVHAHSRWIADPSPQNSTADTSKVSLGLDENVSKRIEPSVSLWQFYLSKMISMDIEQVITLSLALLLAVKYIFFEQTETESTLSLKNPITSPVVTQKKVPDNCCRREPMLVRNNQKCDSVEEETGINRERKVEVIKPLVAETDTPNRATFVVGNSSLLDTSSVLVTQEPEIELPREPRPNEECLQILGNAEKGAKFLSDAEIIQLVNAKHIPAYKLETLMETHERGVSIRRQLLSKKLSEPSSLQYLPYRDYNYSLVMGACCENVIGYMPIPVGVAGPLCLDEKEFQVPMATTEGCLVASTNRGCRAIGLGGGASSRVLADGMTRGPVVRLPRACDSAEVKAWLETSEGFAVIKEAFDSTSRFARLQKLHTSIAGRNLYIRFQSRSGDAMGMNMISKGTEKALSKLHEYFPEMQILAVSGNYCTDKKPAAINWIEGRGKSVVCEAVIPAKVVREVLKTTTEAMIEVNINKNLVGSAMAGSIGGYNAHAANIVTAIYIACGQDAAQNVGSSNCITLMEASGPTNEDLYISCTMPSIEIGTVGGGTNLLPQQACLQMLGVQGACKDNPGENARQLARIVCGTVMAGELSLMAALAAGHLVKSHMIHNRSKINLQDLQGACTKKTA
Nature of the assay: HMG-CoA reductase activity in isolated chicken hepatocytes. The assay is classed as cell-based. As to the method: This study measured the effects of three tocotrienols isolated from rice bran on cholesterol-related enzyme activity in hepatocytes isolated from livers of 8-week old female chickens. The chickens were fed the chick mash diet for 8 weeks. They were then fasted for 40 hours and finally refed for 48 hours before sacrifice. The hepatocytes were then prepared following standard methods.
Each compound was isolated from TRF using the following protocol: A bond Elute amine column was equilibrated with 2 ml hexane. 10 mg of TRF (dissolved in 0.5 ml hexane) was bound to the amine column. The column was washed with 1 ml of hexane, then with 1 ml of 3% isopropanol in hexane. P-21 and P-25 were eluted off the column with 5% isopropanol in hexane. Then using 10% isopropanol in hexane, the impurity P-20 was eluted. α-tocotrienol was also tested.
We next measured the effects of various tocotrienols and tocotrienol-like compounds isolated from rice bran on the activity of HMG-CoA reductase. 20.0 g of stabilized rice bran was extracted with 200.0 ml of methanol to remove various UV absorbing impurities and tocotrienols (6.7 mg total). This step was repeated four times. The remaining residue was dried under vacuum in a desiccator and then heated at 180° C. for 2 hours under 30 psi pressure. Then the dried residue was extracted again with 200.0 ml methanol (3.4 mg). […]

Where “and” joins values, the source holds several entries; their conditions need not be identical. Equal entries are not always repeated.

With `CC(C)=CCC/C(C)=C/CC/C(C)=C/CCC1CCc2cc(O)ccc2O1` (stereo not shown) [P25, 3,4-dihydro-2-(4,8,12-trimethyltrideca-3'(E),7'(E),11'-trienyl)-2H-1-benzopyran-6-ol], the “maximum reduction in activity of HMG-CoA reductase” value is 46.6% and 58.6%.

Values taken from US6239171A, “Tocotrienols and tocotrienol-like compounds and methods for their use” (Lipogenics, Inc., priority 1998, dated 2001).
